The subject of data set [1] is platinum-resistant SCLC patients. As to conditions: second-line lurbinectedin; ref Trigo et al., 2020; cited from earlier work.
The subject of data set [2] is DMS114 and H209 SCLC cell models. The data set is described as follows: replication. The data set is classed as cell-based, human.
Data set [3] concerns replication protein A (RPA) S33 phosphorylation. The data set is described as follows: Western blot of RPA phosphorylation. The data set is classed as cell-based, human.
Data set [4] is described as follows: plasma pharmacokinetics in trial patients. The data set is classed as in vivo, human. The conditions noted are these: cycle 1, suggesting absence of drug-drug interactions.
The subject of data set [5] is patients with platinum-resistant SCLC. The conditions noted are these: topotecan monotherapy, ref Horita et al., 2015; cited from earlier work.
The subject of the next data set is SCLC cells. Nature of the data set: MIPE 5.0 library combination screen with indotecan, pairs ranked by ExcessHSA. The data set is classed as cell-based, human. As to conditions: in combination with indotecan (LMP400).
In data set [6] the test system is TOP1 DNA-protein crosslinks (TOP1-DPCs) in DMS114 cells. The data set is described as follows: in vivo complex of enzyme. The data set is classed as cell-based, human.
In the next data set the test system is DMS114 cells. The data set is described as follows: flow cytometry EdU incorporation and cell cycle analysis. It counts as cell-based, human. As to conditions: M6620 with topotecan; forced progression to G2/M phase.
Another data set relates to pCHK1 (Ser345). Nature of the data set: pharmacodynamics of pCHK1. It counts as in vivo, mice. The conditions noted are these: M6620 10, 20 and 30 mg/kg i.v. with 50 mg/kg irinotecan i.p.; 1-24 h.

We go through 6 compounds from paper PMC8048383 (Cancer cell, 2021).

`COc1ccc2[nH]c3c(c2c1)CCN[C@]31CS[C@@H]2c3c(OC(C)=O)c(C)c4c(c3[C@H](COC1=O)N1[C@@H]2[C@H]2c3c(cc(C)c(OC)c3O)C[C@@H]([C@@H]1O)N2C)OCO4` [lurbinectedin]: in [1], the “confirmed ORR” value was 22.2%, the “median DOR” value was 4.7 months and the “patients with confirmed responses with DOR>6 months” value was 11.7%.
Consider `CC[C@@]1(O)C(=O)OCc2c1cc1n(c2=O)Cc2cc3c(CN(C)C)c(O)ccc3nc2-1` [topotecan], for which the replication velocity entry in data set [2] (within 30 minutes of topotecan treatment) is “significantly reduced replication velocity”. Besides, in data set [3] (DMS114 cells, following exposure to topotecan), the “phosphorylation of RPA at S33” value is given as “rapid phosphorylation of replication protein A (RPA) at S33”. For the same compound, the “plasma pharmacokinetics in combination” value in [4] is given as “appeared consistent with the individual agents”. Further, the “responses (proportion of patients)” value in data set [5] was “approximately 5%”.
For the compound `CNCc1ccc(-c2cc(-c3nc(-c4ccc(S(=O)(=O)C(C)C)cc4)cnc3N)on2)cc1` [M6620, berzosertib], the “rank of TOP1 inhibitor-drug pair by ExcessHSA” value with SCLC cells came out at 32. Moreover, in data set [6] (M6620 pre-treatment (1 μM, 4 h), after 2-hour treatment with topotecan (1 μM)), the “increase in TOP1-DPCs” value was determined as 1.4 fold. The topotecan-induced replication block result in data set [2] (M6620 added to topotecan) is “abrogated the replication block”. For the same compound, the “S-phase arrest induced by TOP1 inhibition” value in the data set with DMS114 cells is recorded as “abrogated the S-phase arrest induced by TOP1 inhibition”. In addition, the “topotecan-induced RPA32 phosphorylation” value in data set [3] (M6620 treatment) was “reduced the topotecan-induced RPA32 phosphorylation”. Moreover, the “irinotecan induced pCHK1 (Ser345)” value in the data set on pCHK1 (Ser345) is “blocks irinotecan induced pCHK1 in a dose- and time-dependent manner”. Further, the “plasma pharmacokinetics in combination” value in data set [4] is listed as “appeared consistent with the individual agents”.
As to `COc1cccc(OCCCN)c1-c1cc(Nc2cnc(C#N)cn2)n[nH]1` [prexasertib], the “rank of TOP1 inhibitor-drug pair by ExcessHSA” value in the data set on SCLC cells is reported as 9.
The same measure, in the same setting: the same measure for `CC(C)c1cc(-c2n[nH]c(=O)n2-c2ccc3c(ccn3C)c2)c(O)cc1O` [ganetespib]: 5.
Turning to `O=c1cc(-c2cccc3c2Sc2ccccc2S3)oc(N2CCOCC2)c1` [KU55933], in [6] (1 μM pretreatment 4 h before topotecan 1 μM 2 h), the “potentiation of topotecan-generated TOP1-DPCs” value is recorded as “neither an ATM inhibitor (KU55933) nor a DNA-PKcs inhibitor (VS984) potentiated topotecan-generated TOP1-DPCs”.
